Measured values published in US4146719A, “Piperazinyl derivatives of quinoline carboxylic acids” (priority 1977, dated 1979).
Converted amounts (≈) assume the structure as drawn. “Also recorded” adds a separate entry of the source.

Legend:
[1] = rat, in vivo
chromosome of myelocytes = tested on: chromosome of myelocytes; parameters: species or system rats; settings: rat, in vivo, po, 1000 mg/kg
[2] = tested on: Haemophilus influenzae IID 986; assay: Antibacterial activity in vitro, M.I.C., agar dilution streak method; assay type: cell-based; settings: Haemophilus influenzae, IID986; Gram -; read-out: M.I.C.
Shigella sonnei IID 969 = assay: as above; assay type: cell-based; settings: Shigella sonnei, IID969; Gram -
[3] = tested on: Salmonella enteritidis IID 604; assay: as above; assay type: cell-based; settings: Salmonella enterica; Gram -; read-out: M.I.C.
[4] = tested on: Escherichia coli NIHJ JC-2; assay: Influence of kidney homogenate on antibacterial activity; assay type: cell-based
Method: (§1) Nutrient agar was heated and melted. […] The diameter of the inhibition zone was measured.

[5] = tested on: Escherichia coli NIHJ JC-2; assay: Influence of liver homogenate on antibacterial activity; assay type: cell-based
Method: as §1

[6] = Concentrations in urine of rats after a single oral administration; assay type: in vivo; settings: rat; for concentration at 3 h: 0-3 hours; for concentration at 3 h / concentration at 6 h / concentration at 24 h / concentration at 27 h: mean ±S.E., read-out: Urinary level; for concentration at 6 h: 3-6 hours; for concentration at 24 h: 6-24 hours; for concentration at 27 h: 24-27 hours
[7] = Concentrations in urine of mice after a single oral administration; assay type: in vivo; settings: mouse; for concentration at 3 h: 0-3 hours; for concentration at 3 h / concentration at 6 h / concentration at 24 h / concentration at 27 h: mean ±S.E., read-out: Urinary level; for concentration at 6 h: 3-6 hours; for concentration at 24 h: 6-24 hours; for concentration at 27 h: 24-27 hours
[8] = tested on: Pseudomonas aeruginosa IID 1210; assay: Preventive effect against systemic infection with Pseudomonas aeruginosa in mice; assay type: in vivo, Pseudomonas aeruginosa; mice (ddY, male)
Method: Systemic infection was produced by inoculating male mice (strain: ddY, 6 weeks old, body weight: 28-33g) in intraperitoneally with Pseudomonas aeruginosa IID 1210 suspended in 0.5 ml of Brain heart infusion broth (Eiken) containing 5% mucin. […] Each of these test materials was administered to the mice twice, immediately after and then 6 hours after the inoculation, and the therapeutic effect of each compounds was judged from the survival rate.
(1) Miller L. C. and M. L. Tainter: Estimation of the ED50 and its error by means of logarithmic-probit graph paper Proc. Soc. Exp. Biol. Med. 57 261-264 (1944)
(2) Litchfield J. T. and F. Wilcoxon: A simplified method of evaluating dose - effect J. Pharmacol. 92 99-113 (1948)

[9] = Chelate formation with ferric ion; assay type: physicochemical; settings: one third molar equivalent of ferric chloride hexahydrate, molar equivalent of sodium hydroxide, water
Description: It is known that most of drugs such as Quinoform and Ethambutol which form chelates with metal ions in vivo produce undesirable side effects.

[10] = tested on: Escherichia coli NIHJ JC-2; assay: Influence of rat bile on antibacterial activity; assay type: cell-based; settings: bile of rats
Method: as §1

[11] = Serum concentrations at 30 min. after a single oral administration in rats; settings: rat
Sta. aureus ATCC 14775 = assay: Antibacterial activity in vitro, M.I.C., agar dilution streak method; assay type: cell-based, Staphylococcus aureus; settings: Staphylococcus aureus, ATCC14775; Gram +; read-out: M.I.C.
Ps. aeruginosa IID 1210 = assay: as above; assay type: cell-based, Pseudomonas aeruginosa; settings: Pseudomonas aeruginosa, IID1210; Gram -; read-out: M.I.C.
Str. faecalis IID 682 = assay: as above; assay type: cell-based; settings: Enterococcus faecalis, IID682; Gram +
[12] = oral, read-out: time of concentrations peak in urine

CCn1cc(C(=O)O)c(=O)c2cc(F)c(N3CCNCC3)cc21 [Compound (II), 1-ethyl-6-fluoro-1,4-dihydro-7-(1-piperazinyl)-4-oxoquinoline-3-carboxylicacid]
dose dependence of serum concentration (in words) [1]: depended on the dose from 25 mg/kg to 400 mg/kg
effects on chromosome of myelocytes (in words) (chromosome of myelocytes): no effects of the test compound on chromosome of myelocytes were observed
MIC [2]: 0.05 µg/mL (≈ 0.157 µM)
MIC (Shigella sonnei IID 969): 0.1 µg/mL (≈ 0.313 µM)
MIC [3]: 0.2 µg/mL (≈ 0.626 µM)
antibacterial activity in presence of kidney homogenate (in words) [4]: decreased by liver and kidney homogenate
antibacterial activity in presence of liver homogenate (in words) [5]: decreased by liver and kidney homogenate
concentration at 3 h ([6]; 1.56 mg/kg oral): 1360 ± 140 ng/mL
concentration at 6 h ([6]; 1.56 mg/kg oral): 930 ± 140 ng/mL
concentration at 24 h ([6]; 1.56 mg/kg oral): 170 ± 50 ng/mL
concentration at 27 h ([6]; 1.56 mg/kg oral): 40 ± 10 ng/mL
concentration at 3 h ([6]; 3.13 mg/kg oral): 3390 ± 550 ng/mL
concentration at 6 h ([6]; 3.13 mg/kg oral): 3780 ± 440 ng/mL
concentration at 24 h ([6]; 3.13 mg/kg oral): 580 ± 90 ng/mL
concentration at 27 h ([6]; 3.13 mg/kg oral): 30 ng/mL
concentration at 3 h ([6]; 6.25 mg/kg oral): 9690 ± 2300 ng/mL
concentration at 6 h ([6]; 6.25 mg/kg oral): 8080 ± 1500 ng/mL
concentration at 24 h ([6]; 6.25 mg/kg oral): 1360 ± 200 ng/mL
concentration at 27 h ([6]; 6.25 mg/kg oral): 40 ng/mL
concentration at 3 h ([6]; 12.5 mg/kg oral): 21900 ± 3600 ng/mL
concentration at 6 h ([6]; 12.5 mg/kg oral): 16800 ± 1600 ng/mL
concentration at 24 h ([6]; 12.5 mg/kg oral): 4000 ± 500 ng/mL
concentration at 27 h ([6]; 12.5 mg/kg oral): 60 ± 20 ng/mL
concentration at 3 h ([6]; 25.0 mg/kg oral): 56800 ± 11100 ng/mL
concentration at 6 h ([6]; 25.0 mg/kg oral): 46400 ± 3800 ng/mL
concentration at 24 h ([6]; 25.0 mg/kg oral): 13500 ± 3000 ng/mL
concentration at 27 h ([6]; 25.0 mg/kg oral): 1200 ± 500 ng/mL
concentration at 3 h ([6]; 50.0 mg/kg oral): 89300 ± 19500 ng/mL
concentration at 6 h ([6]; 50.0 mg/kg oral): 99200 ± 15900 ng/mL
concentration at 24 h ([6]; 50.0 mg/kg oral): 32200 ± 100 ng/mL
concentration at 27 h ([6]; 50.0 mg/kg oral): 3100 ± 900 ng/mL
Tmax [6, 12]: 0 to 6 h
concentration at 3 h ([7]; 1.56 mg/kg oral): 530 ± 60 ng/mL
concentration at 6 h ([7]; 1.56 mg/kg oral): 220 ± 40 ng/mL
concentration at 24 h ([7]; 1.56 mg/kg oral): 40 ± 30 ng/mL
concentration at 27 h ([7]; 1.56 mg/kg oral): 30 ± 20 ng/mL
concentration at 3 h ([7]; 3.13 mg/kg oral): 1760 ± 190 ng/mL
concentration at 6 h ([7]; 3.13 mg/kg oral): 1460 ± 230 ng/mL
concentration at 24 h ([7]; 3.13 mg/kg oral): 270 ± 40 ng/mL
concentration at 27 h ([7]; 3.13 mg/kg oral): 140 ± 10 ng/mL
concentration at 3 h ([7]; 6.25 mg/kg oral): 3700 ± 260 ng/mL
concentration at 6 h ([7]; 6.25 mg/kg oral): 2040 ± 130 ng/mL
concentration at 24 h ([7]; 6.25 mg/kg oral): 3010 ± 170 ng/mL
concentration at 27 h ([7]; 6.25 mg/kg oral): 380 ± 50 ng/mL
concentration at 3 h ([7]; 12.5 mg/kg oral): 10300 ± 900 ng/mL
concentration at 6 h ([7]; 12.5 mg/kg oral): 8300 ± 700 ng/mL
concentration at 24 h ([7]; 12.5 mg/kg oral): 7400 ± 800 ng/mL
concentration at 27 h ([7]; 12.5 mg/kg oral): 1200 ± 100 ng/mL
concentration at 3 h ([7]; 25.0 mg/kg oral): 16200 ± 3300 ng/mL
concentration at 6 h ([7]; 25.0 mg/kg oral): 20300 ± 1700 ng/mL
concentration at 24 h ([7]; 25.0 mg/kg oral): 11700 ± 900 ng/mL
concentration at 27 h ([7]; 25.0 mg/kg oral): 2500 ± 200 ng/mL
concentration at 3 h ([7]; 50.0 mg/kg oral): 33100 ± 2800 ng/mL
concentration at 6 h ([7]; 50.0 mg/kg oral): 27200 ± 3200 ng/mL
concentration at 24 h ([7]; 50.0 mg/kg oral): 23100 ± 2000 ng/mL
concentration at 27 h ([7]; 50.0 mg/kg oral): 7700 ± 1100 ng/mL
Tmax [7, 12]: 0 to 6 h
ED90 ([8]; Pseudomonas aeruginosa, IID1210): 185 mg/kg
ED50 ([8]; Pseudomonas aeruginosa, IID1210, po, 6 h, read-out: ED50 (95% confidence limit)): 98 mg/kg
protection against systemic infection (in words) ([8]; mice, listed as EXAMPLE 2): effectively protected the mice from Pseudomonas aeruginosa infection; also recorded: more potent than pipemidic acid and carbenicillin
chelate compound with ferric ion [9]: did not give any chelate compound when treated with ferric ion
antibacterial activity in presence of bile (in words) [10]: not influenced by bile of rats
concentration at 0.5 h ([11]; 25 mg/kg): 310 ± 40 ng/mL
concentration at 0.5 h ([11]; 50 mg/kg): 870 ± 110 ng/mL
concentration at 0.5 h ([11]; 100 mg/kg): 1420 ± 230 ng/mL
concentration at 0.5 h ([11]; 200 mg/kg): 2230 ± 300 ng/mL
concentration at 0.5 h ([11]; 400 mg/kg): 3370 ± 350 ng/mL
MIC (Sta. aureus ATCC 14775): 1.56 µg/mL (≈ 4.89 µM)
MIC (Ps. aeruginosa IID 1210): 1.56 µg/mL (≈ 4.89 µM)
MIC (Str. faecalis IID 682): 3.13 µg/mL
